Source: patent publication US7563766B2, “Methods and compositions for the promotion of a hair growth utilizing actin binding peptides” (The United States of America as represented by the …, priority 2002, dated 2009)
Entries after “also recorded” stand apart in the source; their conditions may differ. Ends that are not written are not given here.

Legend:
HUVEC = HUVEC cell adhesion assay; assay type: cell-based, human
Protocol: (§1) Cells—HUVECs were isolated and used at passages 2-5. Grant et al., J. Cell Sci. 108:3685-3694 (1995). The cells were cultured in RPMI 1640 (Invitrogen, Carlsbad, Calif.) supplemented with 20% bovine calf serum (Hyclone Laboratories, Logan, Utah), 200 μg/ml of endothelial cell growth supplement (ECGS) (Collaborative Biomedical Products, Bedford, Mass.), 0.8 U/ml heparin sodium (Fisher Scientific, Pittsburgh, Pa.), penicillin/streptomycin (Invitrogen, Carlsbad, Calif.), 10 μg/ml gentamycin (Invitrogen, Carlsbad, Calif.), and 1% fungizone (Invitrogen, Carlsbad, Calif.).
Cell adhesion—In order to determine which ions are needed for HUVEC adhesion, Laminin-1 peptide (25 ng in 50 μl) and two test concentrations of Tβ4 (100 ng and 500 ng in 50 μl) in 0.1 M carbonate buffer, pH 9.4, were bound to the bottom of U-bottom 96-well plates overnight at 4° C. Wells were then washed twice with PBS and blocked with 150 μl of 3% BSA in PBS (Sigma Chemical Co., St. Louis, Mo.) at room temperature for 30 min. […] The remaining cells were stained with 0.2% crystal violet in 20% methanol, washed in water to remove excess stain, dried overnight at 37° C., and lysed with 10% SDS for 10 min, and the plate OD was read at 600 nm. (Molecular Devices precision microplate reader). […]

chick aortic arches = assay: Chick aortic arch vessel sprouting assay; assay type: cell-based; set-up: key to Sprouting: − = no activity; +/− = low activity; + = active; ++ = high activity; settings: for effect of actin on thymosin β4-mediated sprouting: 5-50 nM
Protocol: Chick aortic arch assay—The aortic arch of 13-day-old chick embryos was removed and placed in RPMI 1640. After removal of surrounding connective tissue, transverse sections of the arch were made (1 mm). The resulting aortic rings were carefully attached to the bottom of a 48-well plate, one ring per well, with 20-30 μl of Matrigel (Collaborative Biomedical Products). The rings were placed so that the lumen of each ring could be seen. More Matrigel was added onto the top of the rings to seal them in place. A 100 μl volume of human endothelial—SFM basal growth medium (Invitrogen) containing 1% penicillin streptomycin was added to each well. Thymosin β4, peptide fragments, and exogenous actin (Sigma Chemical Co.) were added to wells in serum-free medium, bringing the final volume of each well to 400 μl. ECGS (200 μg/ml) was used as a positive control. The plates were incubated for 24 hr at 37° C. Rings were fixed and stained with Diff-Quik solution II. Sprouting was scored in a blind assessment by an observer using 10× magnification on an Olympus microscope. Six wells were used for each condition tested, and each assay was done three times.

[1] = tested on: human umbilical vein endothelial cells; assay: HUVEC migration, Boyden chamber assay; assay type: cell-based
Protocol: as §1
Boyden chamber assay—HUVEC migration assays were conducted in a 48-well micro-chemotaxis chamber (Neuro Probe Inc., Cabin John, Md.) as previously described in Salcedo et al., J. Immunol. 166:7571-7578 (2001). Briefly, PVP-free polycarbonate membranes with 8 μm pores were coated with 50 μg/ml of rat tail collagen (BD Biosciences, Bedford, Mass.) in RPMI 1640 that contained 25 mM HEPES (Invitrogen, Carlsbad, Calif.) at 4° C. overnight. The membranes were dried at least 1 hr prior to use. HUVECs were serum-starved for 2 hr, harvested using Versene (Invitrogen, Carlsbad, Calif.), and resuspended in binding medium that contained RPMI 1640 with 1% BSA and 25 mM HEPES. The lower wells of the chamber were loaded with 1, 10, 100, and 1000 ng/ml of thymosin β4 or peptide fragments that were diluted in binding medium. Basic fibroblast growth factor (bFGF) (200 ng/ml) was used as a positive control. Cells were added to the upper portion of the chamber at a concentration of 50,000 cells per well. The chambers were incubated at 37° C. for 4 hr. The filters were fixed and stained using Diff-Quik (VWR, Bridgeport, N.J.). The cells that successfully migrated through the pores of the membrane were manually quantitated using a CK-2 Olympus microscope at 10× magnification. Each condition was assayed in triplicate, and the assay was repeated twice.

hair follicles = assay: Topical thymosin β4 or T-3 on shaved aged BALB/c mice; assay type: in vivo, mouse; settings: 5 μg/50 μl in water
Protocol: These mice are considered highly aged as they are alive beyond the normal mouse life expectancy. […] The mice were shaved and treated as described above with thymosin β4 at the time of shaving and 48 hours later. At day 7, the skin was harvested and examined histologically, as described above in Example 1.
The T-3 fragment was produced using an automated peptide synthesizer, as is well known in the art.
The synthetic T-3 peptide was applied in a water solution/mixture at a concentration/dose of 5 μg/50 μl. […] Thus, a fragment of thymosin β4 comprising these amino acids is useful in hair regeneration compositions.

[2] = tested on: male and female androgenetic patients; settings: human, in vivo; cited from earlier work

Row | Compound | effect of actin on laminin-1-mediated adhesion (HUVEC; control) | effect of actin on cell adhesion to thymosin β4 (HUVEC; soluble actin added, 5-50 nM) | vessel sprouting, in words (chick aortic arches) | effect of actin on ECGS-mediated vessel sprouting (chick aortic arches; exogenous actin added) | effect of actin on thymosin β4-mediated sprouting (chick aortic arches; exogenous actin added) | effect of actin on thymosin β4-mediated sprouting (chick aortic arches; exogenous actin added, listed as soluble actin) | endothelial cell migration, in words [1] | Sprouting (chick aortic arches; Table 2 score) | activity in the assays (endothelial cell migration and vessel sprouting) (chick aortic arches; statement covers both migration and sprouting assays) | hair follicle development vs water alone (hair follicles) | side effects [2]
1 | actin [reference compound] | no effect | inhibited; also recorded: blocked adhesion | angiogenic activity | did not inhibit | significantly inhibited | inhibited |  |  |  |  | 
2 | LKKTETQ [Peptide T-3] |  |  | fully active |  |  |  | fully active | ++ | generally highly active | increased hair follicle development | 
3 | Nc1cc(N2CCCCC2)nc(N)[n+]1[O-] [minoxidil] |  |  |  |  |  |  |  |  |  |  | scalp irritation and increased facial hair
